Measurements from patent publication US5905076A, “6-substituted amino-4-oxa-1-azabicyclo [3,2,0] heptan-7-one derivatives as cysteine protease inhibitors” (National Research Council of Canada, priority 1997, dated 1999).

Legend:
[1] = target: cathepsin B (Rattus norvegicus, UniProt P00787); assay: In vitro inhibition of cathepsin B; format: biochemical; conditions: r rat cathepsin B, substrate N-CBZ-Phe-Arg-AMC, pH 5.1, 10 min incubation at room temperature
Protocol: In vitro assay procedure for cathepsin B
The compounds of formula I were tested for inhibition of cathepsin B using the known method (A. J. Barret et al., Biochem. J. 1982, 201, 189-198). To a 170 μl of enzyme-buffer mixture (enzyme: r rat cathepsin B, diluted to give approximate 10 F units/min, buffer: 56 mM sodium acetate, 1.124 mM EDTA, 10 mM DTT, pH 5.1) a 10 μL of inhibitor (dissolved in DMSO) was added. After 10 min of incubation at room temperature, a 20 μl of 5 mM substrate (N-CBZ-Phe-Arg-AMC, dissolved in DMSO) was added to initiate reaction. Reading is followed up for 10 min at the fluoroscan reader (excitation at 380 nm emission at 460 nm).
A plot of percentage of inhibition vs inhibitor concentration is obtained, and IC50 is determined using a linear regression calculations (concentration of inhibitor which will give 50% inhibition).

[2] = target: cathepsin L (Rattus norvegicus, UniProt P07154); assay: In vitro inhibition of cathepsin L; format: biochemical; conditions: r rat cathepsin L, substrate N-CBZ-Phe-Arg-AMC, pH 5.0, 10 min incubation at room temperature
cathepsin L, sequence (P07154 114-334): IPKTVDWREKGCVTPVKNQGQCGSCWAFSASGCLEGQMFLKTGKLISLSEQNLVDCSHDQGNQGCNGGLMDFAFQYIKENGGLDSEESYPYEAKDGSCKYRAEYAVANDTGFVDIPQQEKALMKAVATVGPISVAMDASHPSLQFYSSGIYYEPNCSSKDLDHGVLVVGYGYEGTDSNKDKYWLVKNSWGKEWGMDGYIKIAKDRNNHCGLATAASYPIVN
Protocol: In vitro assay procedure for cathepsin L
After 10 min of incubation at room temperature, a 20 μl of 1 mM substrate (N-CBZ-Phe-Arg-AMC, dissolved in DMSO) was added to initiate reaction. Reading is followed up for 10 min at the fluoroscan reader (excitation at 380 nm emission at 460 nm).

cathepsin B, sequence (P00787 80-339): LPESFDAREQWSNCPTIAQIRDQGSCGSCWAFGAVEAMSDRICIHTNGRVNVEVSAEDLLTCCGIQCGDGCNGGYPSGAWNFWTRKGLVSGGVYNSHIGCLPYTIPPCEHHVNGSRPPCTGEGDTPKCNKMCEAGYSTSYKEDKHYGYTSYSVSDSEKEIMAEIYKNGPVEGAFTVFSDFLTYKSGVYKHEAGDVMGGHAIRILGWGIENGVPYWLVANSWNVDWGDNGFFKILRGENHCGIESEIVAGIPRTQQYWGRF

`O=C(N[C@@H](Cc1ccccc1)C(=O)N[C@@H]1C(=O)N2CCO[C@H]12)OCc1ccccc1` [Example 2, (5R,6S)-6-(N-benzyloxycarbonyl-L-phenylalanyl)-amino-4-oxa-1-azabicyclo[3.2.0]heptan-7-one] gave an IC50 [1] of 4.56 µM and an IC50 [2] of 0.26 µM.

Work on `CC[C@H](C)[C@H](NC(=O)OCc1ccccc1)C(=O)N[C@@H]1C(=O)N2CCO[C@H]12` [Example 4, (5R,6S)-6-(N-benzyloxycarbonyl-L-isoleucyl)-amino-4-oxa-1-azabicyclo[3.2.0]heptan-7-one] yielded an IC50 [1] of over 50 µM and an IC50 [2] of 9.88 µM.

`CC(C)C[C@H](NC(=O)OCc1ccccc1)C(=O)N[C@@H]1C(=O)N2CCO[C@H]12` [Example 6, (5R,6S)-6-(N-benzyloxycarbonyl-L-leucyl)-amino-4-oxa-1-azabicyclo[3.2,0]heptan-7-one] was tested, and the IC50 [1] was 30 µM and the IC50 [2] was 0.6 µM.

`O=C(CCc1ccccc1)N[C@@H](Cc1ccccc1)C(=O)N[C@@H]1C(=O)N2CC(CBr)O[C@@H]12` (stereo partly drawn) [Example 10, (5S,6S)-6-{N-(3-phenylpropionoyl)-L-phenylalanyl}-amino-3-bromomethyl-4-oxa-1-azabicyclo[3.2.0]heptan-7-one] was tested, and the IC50 [1] was 1.91 µM and the IC50 [2] was 0.016 µM.

For `O=C(N[C@@H]1C(=O)N2CCO[C@H]12)[C@@H]1CCCN1C(=O)OCc1ccccc1` [Example 3, (5R,6S)-6-(N-benzyloxycarbonyl-L-prolyl)-amino-4-oxa-1-azabicyclo[3.2.0]heptan-7-one], the IC50 [1] was over 50 µM and the IC50 [2] was 9.4 µM.

`O=C(N[C@@H]1C(=O)N2CCO[C@H]12)OCc1ccccc1` [Example 1, (5R,6S)-6-benzyloxycarbonylamino-4-oxa-1-azabicyclo[3.2.0]heptan-7-one] was tested, and the IC50 [1] was over 50 µM and the IC50 [2] was over 50 µM.

`O=C(NC(C(=O)N[C@@H]1C(=O)N2CCO[C@H]12)c1ccccc1)OCc1ccccc1` (stereo partly drawn) [Example 7, (5R,6S)-6-(N-benzyloxycarbonyl-phenylglycyl)-amino-4-oxa-1-azabicyclo[3.2.0]heptan-7-one] was tested, and the IC50 [1] was over 50 µM.

`O=C(N[C@@H](Cc1ccccc1)C(=O)N[C@@H]1C(=O)N2CCO[C@@H]12)OCc1ccccc1` [Example 8, (5S,6S)-6-(N-benzyloxycarbonyl-L-phenylalanyl)-amino-4-oxa-1-azabicyclo[3.2.0]heptan-7-one] showed an IC50 [1] of 12.2 µM.

Compound `C[C@H](NC(=O)OCc1ccccc1)C(=O)N[C@@H]1C(=O)N2CCO[C@H]12` [Example 5, (5R,6S)-6-(N-benzyloxycarbonyl-L-alanyl)-amino-4-oxa-1-azabicyclo[3.2,0]heptan-7-one] has an IC50 [1] of over 50 µM.

Work on `O=C(CCc1ccccc1)N[C@@H](Cc1ccccc1)C(=O)N[C@@H]1C(=O)N2CC(c3ccccc3)O[C@H]12` (stereo partly drawn) [Example 9, (5R,6S)-6-{N-(3-phenylpropionoyl)-L-phenylalanyl}-amino-3-phenyl-4-oxa-1-azabicyclo[3,2.0]heptan-7-one] yielded an IC50 [1] of over 50 µM and an IC50 [2] of over 50 µM.
